Patent US11884649B2, “IRE1α inhibitors and uses thereof” (The Regents of the University of California, priority 2020, dated 2024)

What was measured:
[1] = tested on: lysate kinases (HEK293/HCT116 lysate mixture); assay: Kinome selectivity profiling by kinobead competition; format: binding; conditions: 10 μM compound
Description: Prior to conducting cellular studies with PAIRs, we first performed comprehensive kinome selectivity profiling using a chemical proteomic method (FIG. 4A).^41-43 To do this, we measured the ability of 1, 2, 5, 6, PAIR, and KIRA9 to compete with lysate kinases for binding to a mixture of bead-immobilized, nonselective kinase inhibitors (kinobeads). Each compound (10 μM) was incubated with a standard kinobead matrix and a HEK293/HCT116 lysate mixture and competed kinases were quantified using mass spectrometry.
Kinome Profiling and Selectivity Kinobead Enrichment Protocol
HEK293 and HCT116 cells were plated on 15 cm plates until 90% confluent and lysed into 750 μL modified RIPA buffer (50 mM Tris, 150 mM NaCl, 10 mM NaF, 1% NP40, 0.25% sodium deoxycholate, 5% glycerol, pH 7.8) containing protease inhibitor (Pierce Protease Inhibitor Tablets and 1 mM PMSF) and phosphatase inhibitor (Phosphatase inhibitor cocktail 2 and 3, Sigma Aldrich). Protein content was determined via Bradford assay. […]
Tryptic peptides were separated using a nanoAcquity UPLC instrument with 10 cm fused silica capillary columns made in house and packed with 5 μm 120 Å reverse-phase C18 beads (ReproSil-Pur®, Maisch). […] MS data was analyzed using a Thermo Orbitrap Fusion Tribrid. Raw files were analyzed using MaxQuant (Andromeda) Version 1.6.0.16. […]

[2] = tested on: INS-1 cells expressing IRE1α under Dox control; assay: Apoptosis in IRE1α-overexpressing INS-1 cells (cleaved caspase 3 immunoblot, Annexin V staining); format: cell-based, rat; conditions: 20 μM, 5 ng/mL Dox
Description: Western Blotting and Antibodies
For protein analysis, cells were lysed into modified RIPA buffer (50 mM Tris, 150 mM NaCl, 10 mM NaF, 1% NP40 (v/v), 0.25% sodium deoxycholate (w/v), 5% glycerol (v/v), pH 7.8) containing protease inhibitor (Pierce Protease Inhibitor Tablets and 1 mM PMSF) and phosphatase inhibitor (Phosphatase inhibitor cocktail 2 and 3, Sigma Aldrich) prior to gel loading. Western blots were performed using Any kD™ Mini-PROTEAN® TGX™ Precast protein gels (BioRad). Gels were ran using Tris-Glycine running buffer (25 mM Tris pH 8.6, 192 mM glycine, 0.1% SDS (w/v)) at 180 V. Gels were transferred to nitrocellulose paper using the TransBlot Turbo System (BioRad) at 25 V, 2.5 A for 15 minutes. Nitrocellulose blots were blocked for 30 minutes at room temperature with Odyssey blocking buffer (Li-Cor). Primary antibodies were diluted into blocking buffer and incubated over night at 4° C. Blots were washed 2× with TBST (20 mM Tris pH 7.5, 150 mM NaCl, 0.1% Tween-20) and incubated with near-infrared-dye-conjugated secondary antibodies (Li-Cor) for 1 hour at room temperature. Blots were imaged using a Li-Cor Odyssey IR Imager and quantitated using ImageStudio. The following primary antibodies were used in this study: rabbit anti-IRE1α mAb #14C10 (Cell Signaling, no. 3294), mouse anti-FLAG (DYKDDDDK (SEQ ID NO:24) mAb (Sigma Aldrich, no. F3165), rabbit anti-spliced XBP1 (Cell Signaling, no. 12782), rabbit anti-caspase 3 (Cell Signaling, no. 9662), rabbit anti-cleaved caspase 3 (Cell Signaling, no. 9661), mouse anti-proinsulin (Santa Cruz Biotechnology, no. sc-9168), and rabbit anti-GAPDH (Santa Cruz Biotechnology, no. sc-25778).
For assaying apoptosis by Annexin V staining, cells were plated in 12-well plates overnight. Cells were then treated with various reagents for indicated time periods. On the day of flow cytometry analysis, cells were trypsinized and washed in PBS and resuspended in Annexin V binding buffer with Annexin-V FITC (BD Pharmingen™). Flow cytometry was performed on a Becton Dickinson LSRII flow cytometer.

With `O=S(=O)(CCC(F)(F)F)Nc1ccc(Oc2ncccc2-c2ccnc(NC3CCCNC3)n2)c2ccccc12` (stereo not drawn) [KIRA9, 3,3,3-trifluoro-N-(4-(3-(2-(piperidin-3-ylamino)pyrimidin-4-yl)pyridin-2-yloxy)naphthalen-1-yl)propane-1-sulfonamide] the kinome selectivity [1] was “equivalent potency and selectivity”, the “Annexin-V positivity (mitochondrial apoptosis assay)” value [2] was “significant cytoprotective efficacy” and the “generation of cleaved caspase 3” value [2] was “markedly reduced”.
With `O=S(=O)(CC(F)(F)F)Nc1ccc(Oc2ncccc2-c2ccnc(N[C@H]3CCCNC3)n2)c2ccccc12` (stereo in doubt) [PAIR1, 2,2,2-trifluoro-N-(4-(3-(2-(piperidin-3-ylamino)pyrimidin-4-yl)pyridin-2-yloxy)naphthalen-1-yl)ethanesulfonamide] the kinome selectivity [1] was “high selectivity for IRE1α”, the “Annexin-V positivity (mitochondrial apoptosis assay)” value [2] was “significant cytoprotective efficacy” and the “generation of cleaved caspase 3” value [2] was “markedly reduced”.
